The assay has as its target T1, GST-GK, derived from human liver GK (Homo sapiens, UniProt P35557).
T1 sequence (P35557 1-466 isoform P35557-2): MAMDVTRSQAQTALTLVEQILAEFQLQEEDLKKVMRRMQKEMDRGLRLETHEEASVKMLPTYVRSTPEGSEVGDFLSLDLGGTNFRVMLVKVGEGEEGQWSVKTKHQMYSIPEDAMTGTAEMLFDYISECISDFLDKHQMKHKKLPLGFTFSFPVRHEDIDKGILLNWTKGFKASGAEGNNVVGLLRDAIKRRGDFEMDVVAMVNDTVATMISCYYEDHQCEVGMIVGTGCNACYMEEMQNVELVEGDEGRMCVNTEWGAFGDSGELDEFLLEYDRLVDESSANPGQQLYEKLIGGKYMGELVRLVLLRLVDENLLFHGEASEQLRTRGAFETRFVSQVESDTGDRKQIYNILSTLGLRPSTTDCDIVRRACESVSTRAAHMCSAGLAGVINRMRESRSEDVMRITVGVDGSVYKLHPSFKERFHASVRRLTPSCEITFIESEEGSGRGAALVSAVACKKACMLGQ
Kind of assay: In vitro GK activity: G6P production by GST-GK coupled to NADPH generation with G6PDH. The settings on record: 5 mM D-Glc, 30° C., OD 340 nm over 10 min. The class given is biochemical. The protocol:
Using a protocol similar to that described in WO2000/58293, GK activity may be assayed by coupling the production of G6P by GST-GK to the generation of NADPH with G6PDH as the coupling enzyme.
The GK assay is performed at 30° C. in a flat bottom 96-well assay plate from Costar with a final incubation volume of 100 μL. The assay buffer contains: 25 mM Hepes buffer (pH 7.4), 12.5 mM KCl, 5 mM D-Glc, 5 mM ATP, 6.25 mM NADP, 25 mM MgCl2, 1 mM dithiothreitol, test compound or 5% DMSO, 3.0 unit/mL G6PDH, and 0.4 μL/mL GST-GK, derived from human liver GK. ATP, G6PDH, and NADP may be purchased from Roche Diagnostics. The other reagents are >98% pure and may be purchased from Kanto Chemicals. The test compounds are dissolved in DMSO, before being added to the assay buffer without ATP. This mix is preincubated in the temperature controlled chamber of a SPECTRAmax 250 microplate spectrophotometer (Molecular Devices Corporation, Sunnyvale, Calif.) for 10 min, then the reaction started by the addition of 10 μL ATP solution.
After starting the reaction, the increase in optical density (OD) at 340 nm is monitored over a 10 min incubation period as a measure of GK activity. […] The compound concentrations that produced a 50% increase in GK activity (i.e. FA1.5) are calculated. […]

A value given as a limit tells only on which side of the number the result lay.

For `O=C1CC[C@H](C[C@@H](C(=O)Nc2ncc(F)s2)c2ccc(S(=O)(=O)C3CC3)cc2)C1` [Example 7, 2(R)-2-(4-Cyclopropanesulfonylphenyl)-N-(5-fluorothiazol-2-yl)-3-((R)-3-oxocyclopentyl)propionamide], the “maximum activation of GK” value is reported as “greater than 4 fold”. In addition, the EC50 (read-out: EC50 (concentration of test compound which produces 50% activation)) was less than 500 nM.

(Values after US20080242869A1, “Tri(Cyclo) Substituted Amide Compounds” (priority 2004, published 2008).)
